For one compound, inhibition results are on record in ChEMBL document CHEMBL4052759, “Discovery of DS79182026: A potent orally active hepcidin production inhibitor” (Bioorg Med Chem Lett, 2017).

The target in assay [1] is Serine/threonine-protein kinase PAK 4 (Homo sapiens) (UniProt O96013). The experiment in a line: Inhibition of PAK4 (unknown origin) at 0.49 uM relative to control.
Assay [2] addresses Protein kinase C delta type (Homo sapiens) (UniProt Q05655). Nature of the assay: Inhibition of PKC-delta (unknown origin) at 0.49 uM relative to control.
Assay [3] deals with Tyrosine-protein kinase Lck (Homo sapiens) (UniProt P06239). Nature of the assay: Inhibition of LCK (unknown origin) at 0.49 uM relative to control.
Tyrosine-protein kinase Lck (Homo sapiens), sequence (P06239 2-509 limits assumed): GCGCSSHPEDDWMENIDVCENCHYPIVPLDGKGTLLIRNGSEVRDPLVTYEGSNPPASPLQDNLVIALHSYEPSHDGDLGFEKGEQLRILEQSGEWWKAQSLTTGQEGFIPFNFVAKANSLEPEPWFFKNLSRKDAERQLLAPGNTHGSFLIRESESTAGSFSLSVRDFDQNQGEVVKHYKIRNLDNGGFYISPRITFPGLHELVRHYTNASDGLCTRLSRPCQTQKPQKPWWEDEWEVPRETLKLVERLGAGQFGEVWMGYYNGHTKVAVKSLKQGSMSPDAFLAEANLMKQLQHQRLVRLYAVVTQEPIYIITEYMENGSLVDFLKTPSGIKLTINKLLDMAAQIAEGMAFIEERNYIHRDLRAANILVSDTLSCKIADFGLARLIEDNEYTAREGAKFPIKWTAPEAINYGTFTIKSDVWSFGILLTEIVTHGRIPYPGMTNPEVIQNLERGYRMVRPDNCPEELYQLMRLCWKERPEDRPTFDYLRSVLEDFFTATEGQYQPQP

The structures appear in SMILES notation.

Serine/threonine-protein kinase PAK 4 (Homo sapiens), sequence (O96013 whole entry, looked up): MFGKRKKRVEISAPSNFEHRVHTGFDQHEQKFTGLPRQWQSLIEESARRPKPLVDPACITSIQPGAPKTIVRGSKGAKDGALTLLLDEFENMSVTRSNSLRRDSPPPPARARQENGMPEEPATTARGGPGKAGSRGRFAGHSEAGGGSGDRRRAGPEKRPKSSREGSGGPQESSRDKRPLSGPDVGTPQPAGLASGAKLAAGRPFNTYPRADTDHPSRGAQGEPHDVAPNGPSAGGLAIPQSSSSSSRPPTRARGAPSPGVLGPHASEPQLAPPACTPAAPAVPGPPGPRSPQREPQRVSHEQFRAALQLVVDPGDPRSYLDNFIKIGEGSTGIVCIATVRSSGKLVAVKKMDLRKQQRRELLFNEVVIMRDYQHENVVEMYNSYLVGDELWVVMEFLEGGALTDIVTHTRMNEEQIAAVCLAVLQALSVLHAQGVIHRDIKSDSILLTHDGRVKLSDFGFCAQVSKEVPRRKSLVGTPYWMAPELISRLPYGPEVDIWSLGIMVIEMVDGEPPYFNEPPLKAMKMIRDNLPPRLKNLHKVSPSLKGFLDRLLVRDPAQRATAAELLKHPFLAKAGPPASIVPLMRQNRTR
Protein kinase C delta type (Homo sapiens), sequence (Q05655 whole entry, looked up): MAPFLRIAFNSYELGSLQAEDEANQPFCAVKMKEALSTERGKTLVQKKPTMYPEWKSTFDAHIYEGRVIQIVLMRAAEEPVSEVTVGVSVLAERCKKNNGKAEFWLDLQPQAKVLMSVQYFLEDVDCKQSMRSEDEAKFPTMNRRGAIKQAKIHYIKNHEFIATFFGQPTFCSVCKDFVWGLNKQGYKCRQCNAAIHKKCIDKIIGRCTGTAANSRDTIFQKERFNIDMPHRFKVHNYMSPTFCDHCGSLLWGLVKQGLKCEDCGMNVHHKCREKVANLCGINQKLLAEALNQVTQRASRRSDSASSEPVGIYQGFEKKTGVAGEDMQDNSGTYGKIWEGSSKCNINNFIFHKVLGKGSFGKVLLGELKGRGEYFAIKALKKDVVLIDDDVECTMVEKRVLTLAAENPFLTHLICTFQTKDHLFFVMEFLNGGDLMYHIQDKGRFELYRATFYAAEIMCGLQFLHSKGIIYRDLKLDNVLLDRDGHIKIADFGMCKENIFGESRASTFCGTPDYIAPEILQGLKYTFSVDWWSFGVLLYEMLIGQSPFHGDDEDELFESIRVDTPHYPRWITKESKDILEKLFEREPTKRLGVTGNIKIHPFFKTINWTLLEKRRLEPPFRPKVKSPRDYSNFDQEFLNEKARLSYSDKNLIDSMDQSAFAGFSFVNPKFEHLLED

One may read the inhibition as the drop in the measured response relative to a control, in per cent. For `Cc1[nH]nc(C2CC2)c1-c1ccc2c(NC(=O)C3CC3)noc2c1`, the figures for the inhibition in assay [1], in assay [2] and in assay [3] were -3%, 6.7% and 5.7%, respectively.
